Columns and labels:
GSPT1 = molecular target: T1, GSPT1 (Homo sapiens, UniProt P15170+Q96SW2); assay: Degradation of GSPT1 by the compounds (HiBiT signal in GSPT1/HEK293 hibit cells); type: cell-based; details: 6 h incubation, Nano Glo HiBiT Lytic Detection
T1 construct: host or cells: HEK293
Experimental: GSPT1/HEK293 hibit cell lines were constructed by Shanghai BioDuro Co., Ltd., HEK293 cell lines were purchased from ATCC (Cat #ATCC® CRL-1573™), DMEM media were purchased from ATCC (Cat #ATCC® 30-2002™), FBS was purchased from Gibco (Cat #10091148), Nano Glo HiBiT Lytic Detection System was purchased from Promega (Cat #N3040), and 96-well plates were purchased from coming (Cat #3610).
The degradation of GSPT1 by the compounds was determined by measuring the intensity of hibit signals in cells. Firstly, the cells were digested with pancreatin, and the digestion was then terminated with medium. The cells were centrifuged, and the supernatant was discarded. The centrifuged cells were resuspended in a fresh complete medium, and the cell density was adjusted to 2.5×10^4 cells/mL. The resuspended cells were inoculated into an opaque 96-well cell culture plate at 100 μL of cell suspension per well, and the cell culture plate was incubated in a cell incubator at 37° C. overnight. The next day, dilutions (20 μL) of compounds with different concentrations were added, and the plate was incubated in a cell incubator for 6 h. After 6 h, 60 μL of Nano Glo HiBiT Lytic Detection System reagent was added and the luminescence values were read on the instrument.
According to the corresponding degradation rate and concentration of each gradient concentration well, a gradient curve of degradation rate was fitted using XLFit software, and the DC50 values of compounds were calculated.

HL60 cells = assay: HL60 cell killing experiment (CellTiter-Glo cell viability); type: cell-based; details: CTG luminescence
Experimental: HL60 cell lines were purchased from ATCC (Cat #ATCC® CCL-240™), IMDM media were purchased from ATCC (Cat #ATCC® 30-2005™), FBS was purchased from Gibco (Cat #10091148), celltiter-glo luminescent cell viability assay was purchased from promega (Cat #G7572), and 96-well plates were purchased from corning (Cat #3610).
The effect of compounds on the growth of HL60 cells was determined by measuring cell viability. Firstly, cells in the logarithmic growth phase were collected and centrifuged, and the culture supernatant was discarded. The centrifuged cells were resuspended in a fresh complete medium, and the cell density was adjusted to 5×10^4 cells/mL. The resuspended cells were inoculated into two opaque 96-well cell culture plates at 100 μL of cell suspension per well, and the cell culture plates were incubated in a cell incubator at 37° C. for 4 h. After 4 h, dilutions (20 μL) of compounds with different concentrations were added. After one of the cell plates was cooled to room temperature, 60 μL of CTG reagent was added, and the luminescence values were read on the instrument as G0. The other one was incubated in a cell incubator for 48 h. After 48 h, 60 μL of CTG reagent was added, and the luminescence values were read on the instrument as G3.
According to the corresponding proliferation rate and concentration of each gradient concentration well, a gradient curve of cell proliferation was fitted using XLFit software, and the GI50 values of compounds were calculated.

[1] = Homo sapiens, HL-60, 48 h incubation

T1 sequence (P15170 whole entry): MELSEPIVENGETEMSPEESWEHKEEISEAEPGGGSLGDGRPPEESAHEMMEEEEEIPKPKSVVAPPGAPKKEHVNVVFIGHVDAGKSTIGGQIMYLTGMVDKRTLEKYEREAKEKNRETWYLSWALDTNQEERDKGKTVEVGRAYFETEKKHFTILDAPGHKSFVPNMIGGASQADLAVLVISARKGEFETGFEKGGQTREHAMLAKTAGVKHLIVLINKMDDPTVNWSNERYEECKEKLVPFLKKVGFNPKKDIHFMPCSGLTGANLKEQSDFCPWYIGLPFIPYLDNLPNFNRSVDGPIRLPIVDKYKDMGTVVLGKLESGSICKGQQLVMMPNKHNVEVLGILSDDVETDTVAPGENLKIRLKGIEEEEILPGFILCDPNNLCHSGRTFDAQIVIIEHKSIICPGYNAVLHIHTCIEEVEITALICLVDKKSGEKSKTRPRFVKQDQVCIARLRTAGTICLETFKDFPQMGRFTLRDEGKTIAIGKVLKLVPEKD
T1 sequence (Q96SW2 whole entry): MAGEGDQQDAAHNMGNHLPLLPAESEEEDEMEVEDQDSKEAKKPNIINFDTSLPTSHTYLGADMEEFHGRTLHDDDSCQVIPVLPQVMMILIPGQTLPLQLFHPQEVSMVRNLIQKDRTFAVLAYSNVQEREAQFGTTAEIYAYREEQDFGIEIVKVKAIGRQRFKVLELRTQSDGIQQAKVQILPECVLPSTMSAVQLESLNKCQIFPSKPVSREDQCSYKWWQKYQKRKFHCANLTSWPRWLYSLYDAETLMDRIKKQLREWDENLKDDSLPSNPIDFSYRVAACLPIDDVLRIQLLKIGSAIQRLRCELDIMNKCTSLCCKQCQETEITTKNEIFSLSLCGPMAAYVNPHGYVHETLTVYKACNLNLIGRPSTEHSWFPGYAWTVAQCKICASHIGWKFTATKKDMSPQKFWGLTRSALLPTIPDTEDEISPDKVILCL
T1 sequence (Q16531 whole entry partner): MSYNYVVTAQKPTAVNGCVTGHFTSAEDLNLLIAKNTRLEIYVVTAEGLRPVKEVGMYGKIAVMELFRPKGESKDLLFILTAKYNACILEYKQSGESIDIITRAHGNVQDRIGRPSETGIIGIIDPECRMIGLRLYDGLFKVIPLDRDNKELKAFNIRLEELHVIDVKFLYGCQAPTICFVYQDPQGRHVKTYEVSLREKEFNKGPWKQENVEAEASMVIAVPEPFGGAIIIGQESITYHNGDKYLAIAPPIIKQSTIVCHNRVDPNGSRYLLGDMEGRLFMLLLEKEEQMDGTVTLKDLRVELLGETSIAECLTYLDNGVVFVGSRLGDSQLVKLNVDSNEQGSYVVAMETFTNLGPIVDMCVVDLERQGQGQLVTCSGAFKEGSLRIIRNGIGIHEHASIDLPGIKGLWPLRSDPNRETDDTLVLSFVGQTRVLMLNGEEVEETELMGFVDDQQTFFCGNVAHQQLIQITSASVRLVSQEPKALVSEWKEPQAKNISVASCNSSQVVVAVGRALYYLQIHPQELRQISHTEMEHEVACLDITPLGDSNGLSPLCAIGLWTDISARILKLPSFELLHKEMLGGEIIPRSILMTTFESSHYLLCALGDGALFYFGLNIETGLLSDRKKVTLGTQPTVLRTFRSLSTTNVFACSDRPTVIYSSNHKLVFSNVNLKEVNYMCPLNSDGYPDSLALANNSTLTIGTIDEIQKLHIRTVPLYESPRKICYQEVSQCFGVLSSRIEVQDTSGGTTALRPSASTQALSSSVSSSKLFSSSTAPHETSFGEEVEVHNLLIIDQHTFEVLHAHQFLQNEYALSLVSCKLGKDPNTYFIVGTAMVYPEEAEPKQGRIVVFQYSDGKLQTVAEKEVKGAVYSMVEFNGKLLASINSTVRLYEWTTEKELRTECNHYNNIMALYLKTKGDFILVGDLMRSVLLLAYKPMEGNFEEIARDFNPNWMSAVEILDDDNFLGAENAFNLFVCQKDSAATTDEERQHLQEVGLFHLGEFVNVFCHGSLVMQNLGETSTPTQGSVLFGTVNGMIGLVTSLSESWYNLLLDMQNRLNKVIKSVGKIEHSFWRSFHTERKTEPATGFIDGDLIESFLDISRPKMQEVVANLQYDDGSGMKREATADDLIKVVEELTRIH

| DC50 (GSPT1) | Compound | GI50 (HL60 cells; [1]) | GI50 (HL60 cells; 48 h incubation) |
| --- | --- | --- | --- |
| < 100 nM | O=C1CCC(N2C(=O)c3cccc(NCc4cccc(C(=O)NC5CCC(c6nsc7ccccc67)CC5)c4)c3C2=O)C(=O)N1 (single isomer, unassigned) [Example 52] | < 100 nM |  |
| < 100 nM | O=C1CCC(N2C(=O)c3cccc(NCc4cccc(C(=O)NC5CCC(c6nsc7ccccc67)CC5)c4)c3C2=O)C(=O)N1 (single isomer, unassigned) [Example 53] |  | < 100 nM |
| < 100 nM | Cn1c(C2CC(NC(=O)c3cccc(CNc4cccc5c4C(=O)N(C4CCC(=O)NC4=O)C5=O)c3)C2)nc2ccncc21 (stereo not drawn) [Example 9] |  |  |
| < 100 nM | O=C1CCC(N2C(=O)c3cccc(NCc4cccc(C(=O)NC5CCC(c6cc7ccccc7o6)CC5)c4)c3C2=O)C(=O)N1 (stereo not drawn) [Example 12] | < 100 nM |  |
| < 100 nM | O=C1CCC(N2C(=O)c3cccc(NCc4cccc(C(=O)NC5CCC(c6coc7ccccc67)CC5)c4)c3C2=O)C(=O)N1 (stereo not drawn) [Example 13] | < 100 nM |  |
| < 100 nM | O=C1CCC(N2C(=O)c3cccc(NCc4cccc(C(=O)NC5CCC(c6n[nH]c7ccccc67)CC5)c4)c3C2=O)C(=O)N1 (stereo not drawn) [Example 14] | < 100 nM |  |
| < 100 nM | O=C1CCC(N2C(=O)c3cccc(NCc4cccc(C(=O)NC5CCC(c6n[nH]c7ccccc67)CC5)c4)c3C2=O)C(=O)N1 (stereo not drawn) [Example 15] |  | < 100 nM |
| < 100 nM | O=C1CCC(N2C(=O)c3cccc(NCc4cccc(C(=O)NC5CCC(c6nc7ccccc7o6)CC5)c4)c3C2=O)C(=O)N1 (stereo not drawn) [Example 17] |  | < 100 nM |
| < 100 nM | O=C1CCC(N2C(=O)c3cccc(NCc4cccc(C(=O)NC5CCC(c6nc7cccnc7[nH]6)CC5)c4)c3C2=O)C(=O)N1 (stereo not drawn) [Example 18] | < 100 nM |  |
| < 100 nM | O=C1CCC(N2C(=O)c3cccc(NCc4ccnc(C(=O)NC5CCC(c6nc7ccccc7[nH]6)CC5)c4)c3C2=O)C(=O)N1 (stereo not drawn) [Example 19] | < 100 nM |  |
| < 100 nM | Cn1c(C2CCC(NC(=O)c3cccc(CNc4cccc5c4C(=O)N(C4CCC(=O)NC4=O)C5=O)n3)CC2)nc2ccncc21 (stereo not drawn) [Example 21] | < 100 nM |  |
| < 100 nM | O=C1CCC(N2C(=O)c3cccc(NCc4ccnc(C(=O)NC5CCC(c6nc7ccccc7o6)CC5)c4)c3C2=O)C(=O)N1 (stereo not drawn) [Example 22] | < 100 nM |  |
| < 100 nM | Cn1c(C2CCC(NC(=O)c3cc(CNc4cccc5c4C(=O)N(C4CCC(=O)NC4=O)C5=O)ccn3)CC2)nc2ccncc21 (stereo not drawn) [Example 23] | < 100 nM |  |
| < 100 nM | Cn1c(C2CCC(NC(=O)c3cc(CNc4cccc5c4C(=O)N(C4CCC(=O)NC4=O)C5=O)ccn3)CC2)nc2ccncc21 (stereo not drawn) [Example 25] |  | < 100 nM |
| < 100 nM | O=C1CCC(N2C(=O)c3cccc(NCCCCC(=O)NC4CCC(c5nc6c(cnc7[nH]ccc76)[nH]5)CC4)c3C2=O)C(=O)N1 (stereo not drawn) [Example 29] | < 100 nM |  |
| < 100 nM | Cn1c(C2CCC(NC(=O)c3cccc(CNc4cccc5c4C(=O)N(C4CCC(=O)NC4=O)C5=O)c3)CC2)nc2ccccc21 (stereo not drawn) [Example 33] | < 100 nM |  |
| < 100 nM | Cn1c2cc(N)ccc2nc1[C@H]1CC[C@H](NC(=O)c2cc(CNc3cccc4c3C(=O)N(C3CCC(=O)NC3=O)C4=O)ccn2)CC1 (stereo partly drawn) [Example 131] |  |  |
| < 100 nM | COc1ccc(CNc2cccc3c2C(=O)N(C2CCC(=O)NC2=O)C3=O)cc1C(=O)N[C@H]1CC[C@H](c2nc3cc(N)cnc3s2)CC1 (stereo partly drawn) [Example 132] |  |  |
| < 100 nM | COc1ccc(CNc2cccc3c2C(=O)N(C2CCC(=O)NC2=O)C3=O)cc1C(=O)N[C@H]1CC[C@H](c2nc3cc(N)ccc3s2)CC1 (stereo partly drawn) [Example 133] |  |  |
| < 100 nM | COc1ncc(CNc2cccc3c2C(=O)N(C2CCC(=O)NC2=O)C3=O)cc1C(=O)N[C@H]1CC[C@H](c2nc3cccnc3s2)CC1 (stereo partly drawn) [Example 134] |  |  |
| < 100 nM | O=C1CCC(N2Cc3c(OCc4ccnc(NC[C@H]5CC[C@H](c6nc7cccnc7s6)CC5)c4)cccc3C2=O)C(=O)N1 (stereo partly drawn) [Example 135] |  |  |
| < 100 nM | COc1ccc2nc([C@H]3CC[C@H](CNc4cc(COc5cccc6c5CN(C5CCC(=O)NC5=O)C6=O)ccn4)CC3)sc2n1 (stereo partly drawn) [Example 136] |  |  |
| < 100 nM | COc1ccc2nc([C@H]3CC[C@H](CNc4cc(CNc5cccc6c5C(=O)N(C5CCC(=O)NC5=O)C6=O)ccn4)CC3)sc2n1 (stereo partly drawn) [Example 137] |  |  |

The remaining lines, values behind:

| Compound | DC50 (GSPT1) | GI50 (HL60 cells; [1]) | GI50 (HL60 cells; 48 h incubation) |
| --- | --- | --- | --- |
| O=C1CCC(N2C(=O)c3cccc(NCc4cccc(C(=O)NC5CCCC(F)C5)c4)c3C2=O)C(=O)N1 (stereo not drawn) [Example 1] | < 100 nM | < 100 nM |  |
| COC1CCCC(NC(=O)c2cccc(CNc3cccc4c3C(=O)N(C3CCC(=O)NC3=O)C4=O)c2)C1 (stereo not drawn) [Example 2] | < 100 nM | < 100 nM |  |
| O=C1CCC(N2C(=O)c3cccc(NCc4cccc(C(=O)NC5CCCC(F)(F)C5)c4)c3C2=O)C(=O)N1 (stereo not drawn) [Example 3] | < 100 nM |  |  |
| O=C1CCC(N2C(=O)c3cccc(NCc4cccc(C(=O)NC5CCC(c6ccccc6)CC5)c4)c3C2=O)C(=O)N1 (stereo not drawn) [Example 4] | < 100 nM |  |  |
| O=C1CCC(N2C(=O)c3cccc(NCCCCC(=O)NC4CCC(c5nc6ccccc6[nH]5)CC4)c3C2=O)C(=O)N1 (stereo not drawn) [Example 5] | < 100 nM | < 100 nM |  |
| O=C1CCC(N2C(=O)c3cccc(NCCCCC(=O)NC4CCC(c5nc6ccncc6[nH]5)CC4)c3C2=O)C(=O)N1 (stereo not drawn) [Example 6] | < 100 nM | < 100 nM |  |
| Cn1c(C2CCC(NC(=O)CCCCNc3cccc4c3C(=O)N(C3CCC(=O)NC3=O)C4=O)CC2)nc2ccncc21 (stereo not drawn) [Example 8] | < 100 nM | < 100 nM |  |
| O=C1CCC(N2C(=O)c3cccc(NCc4cccc(C(=O)NC5CCC(c6n[nH]c7ccncc67)CC5)c4)c3C2=O)C(=O)N1 (stereo not drawn) [Example 20] |  | < 100 nM |  |
| O=C1CCC(N2C(=O)c3cccc(NCc4ccnc(NC[C@H]5CC[C@H](c6nc7cccnc7s6)CC5)c4)c3C2=O)C(=O)N1 (stereo partly drawn) [Example 28] |  | < 100 nM |  |
| Cn1c(N2CCC(NC(=O)c3cc(CNc4cccc5c4C(=O)N(C4CCC(=O)NC4=O)C5=O)ccn3)CC2)nc2ccccc21 (stereo not drawn) [Example 41] |  | < 100 nM |  |
| O=C1CCC(N2C(=O)c3cccc(NCc4cccc(C(=O)NC5CCC(c6csc7ccccc67)CC5)c4)c3C2=O)C(=O)N1 (stereo not drawn) [Example 45] |  | < 100 nM |  |
| O=C1CCC(N2C(=O)c3cccc(NCc4cccc(C(=O)NC5CCC(c6csc7ccccc67)CC5)c4)c3C2=O)C(=O)N1 (stereo not drawn) [Example 46] |  |  | < 100 nM |
| O=C1CCC(N2C(=O)c3cccc(NCc4cccc(C(=O)NC5CCC(c6csc7ncccc67)CC5)c4)c3C2=O)C(=O)N1 (stereo not drawn) [Example 54] |  | < 100 nM |  |
| CN(C[C@H]1CC[C@H](c2nc3cccnc3s2)CC1)c1cc(CNc2cccc3c2C(=O)N(C2CCC(=O)NC2=O)C3=O)ccn1 (stereo partly drawn) [Example 64] |  | < 100 nM |  |
| Cn1c2ccccc2nc1[C@H]1CC[C@H](N2Cc3ccc(CNc4cccc5c4C(=O)N(C4CCC(=O)NC4=O)C5=O)cc3C2=O)CC1 (stereo partly drawn) [Example 68] |  | < 100 nM |  |
| Cn1c2ccc(CNc3cccc4c3C(=O)N(C3CCC(=O)NC3=O)C4=O)cc2nc1[C@H]1CC[C@H](c2nc3cccnc3s2)CC1 (stereo partly drawn) [Example 73] |  | < 100 nM |  |
| Cn1c2cnccc2nc1[C@H]1CC[C@H](C(=O)Nc2cccc(CNc3cccc4c3C(=O)N(C3CCC(=O)NC3=O)C4=O)c2F)CC1 (stereo partly drawn) [Example 78] |  | < 100 nM |  |
| O=C1CCC(N2C(=O)c3cccc(NCc4cccc5c4CCN5C(=O)[C@H]4CC[C@H](c5nc6cccnc6s5)CC4)c3C2=O)C(=O)N1 (stereo partly drawn) [Example 87] |  | < 100 nM |  |
| COc1cc2nc(C3CCC(NC(=O)c4cccc(CNc5cccc6c5C(=O)N(C5CCC(=O)NC5=O)C6=O)c4)CC3)n(C)c2cn1 (stereo not drawn) [Example 88] |  | < 100 nM |  |
| O=C1CCC(N2C(=O)c3cccc(NC4(c5ccnc(C(=O)N[C@H]6CC[C@H](c7nc8cccnc8s7)CC6)c5)CC4)c3C2=O)C(=O)N1 (stereo partly drawn) [Example 92] |  | < 100 nM |  |
| CN(C)c1ccc2c(c1)nc(C1CCC(NC(=O)c3cccc(CNc4cccc5c4C(=O)N(C4CCC(=O)NC4=O)C5=O)c3)CC1)n2C (stereo not drawn) [Example 102] |  | < 100 nM |  |
| CN(C)c1cc2c(cn1)nc([C@H]1CC[C@H](C(=O)Nc3cccc(CNc4cccc5c4C(=O)N(C4CCC(=O)NC4=O)C5=O)c3)CC1)n2C (stereo partly drawn) [Example 103] |  | < 100 nM |  |
| CN(C)c1cc2c(cn1)nc([C@H]1CC[C@H](NC(=O)c3cc(CNc4cccc5c4C(=O)N(C4CCC(=O)NC4=O)C5=O)ccn3)CC1)n2C (stereo partly drawn) [Example 106] |  | < 100 nM |  |

— patent US20250361239A1, “PROTEIN DEGRADERS AND USES THEREOF” (ZHUHAI YUFAN BIOTECHNOLOGIES CO., LTD., priority 2022, published 2025)
